Source: patent publication US9186340B2, “Ischemia/reperfusion protection compositions and methods of using” (priority 2007, dated 2015)

How the values were obtained:
[1] = tested on: rats subjected to 60% blood loss; experiment: Rat hemorrhagic shock, 60% blood loss (Example 3); format: in vivo
Protocol: Rats infused with ketone bodies were subjected to 60% blood loss for at least 1 hour, followed by return of the shed blood. Endpoint measures of neuroprotection were quantitative analysis of neuronal survival and apoptosis in cortex, hippocampus and cerebellum as well as neurologic function exam scores. The objective was to determine the effectiveness of the D-form of beta-hydroxybutyrate (D-BHB) in conjunction with melatonin in protecting the brain from ischemia and providing protection from reperfusion injury after blood return.
The goal of the following experiments was to maintain 60% blood loss for at least three hours using a minimal amount of fluid in order to maintain viability. Sixty-percent blood loss was calculated by using the equation: Total blood volume=Animal body weight×0.06. A bolus volume of 1 ml ischemia/reperfusion protection composition per kilogram of animal body weight was given to animals after approximately 40% blood loss. Some animals only received a single 1 ml/kg bolus, while other animals received a slow infusion (100 μl/hr) to imitate an intravenous drip of solution after the bolus was given. […]
Once rats were fully anesthesized and stabilized for a 20 min period, blood loss was begun. […] Temperature was monitored with a rectal probe. […] Animal death was recorded when blood pressure, respiration, and precordial movement ceased (see FIG. 9 for a timeline). […]

[2] = tested on: heart of hibernating ground squirrels; settings: in vivo, ip
Protocol: The overall strategy of these experiments was to measure incorporation of isotope from infused ^13C-BHB into the brain pool of ^13C-BHB and into the tricarboxylic acid (TCA) cycle-derived metabolites such as glutamate, glutamine and aspartate. The same experiments were performed in parallel using [1-^13C2]-glucose (FIG. 1). A quantitative determination of BHB blood-brain transport and a rate of consumption (relative to glucose consumption) was determined in non-hibernating ground squirrels at euthermic temperatures and in hibernating ground squirrels at 4-6° C. Ground squirrels were anesthetized (isoflurane) prior to placement in the magnet of the magnetic resonance (MR) instrument and were injected with ^13C-BHB or [1-^13C2]-glucose.

| SMILES | survival following hemorrhagic shock versus 4 M NaCl ([1]; 60% blood loss, same osmolarity NaCl comparator) | survival versus NaCl, bolus followed by infusion ([1]; bolus followed by 100 μl/hr infusion, p-value<0.016) | transport into the heart during hibernation [2] |
| --- | --- | --- | --- |
| C[C@@H](O)CC(=O)O [D-BHB, D-beta-hydroxybutyrate] | survived longer | lived significantly longer | – |
| [13CH3][C@@H](O)[13CH2]C(=O)O [^13C-D-BHB, [2,4-^13C] D-beta-hydroxybutyrate] | – | – | efficiently transported into the heart |
